Assay results taken from patent publication US12037344B2, “NLRP3 modulators” (INNATE TUMOR IMMUNITY, INC., priority 2018, dated 2024).

Tests used:
THP-1 cells = assay: Measurement of IL-1β production, hTRF protocol (second alternative procedure), THP-1 cells; type: cell-based, human; settings: Homo sapiens, THP-1, IL-1β production, human; read-out: NLRP3 hILIB EC50
Summary of the method: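 Compounds, dilution series starting at a final 10 μM, were incubated 2 hours at 37° C with PMA-differentiated THP-1 cells (50 ng/ml overnight; 50,000 cells/well, 2% FBS RPMI). Released IL-1β quantified in supernatant by hTRF kit with 1:40 antibody dilution, 4° C overnight, 665/615 nm ratio.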

TLR7 = target: T1, TLR7 (Homo sapiens, UniProt Q9NYK1); assay: In vitro human TLR7 binding reporter assay (HEK-Blue, NF-kB/AP1-inducible SEAP); type: cell-based; settings: activity range class, read-out: TLR7 Agonist EC50
T1 construct: human HEK-Blue cells co-expressing a TLR7 or TLR8 gene
T1 sequence (Q9NYK1 27-1049): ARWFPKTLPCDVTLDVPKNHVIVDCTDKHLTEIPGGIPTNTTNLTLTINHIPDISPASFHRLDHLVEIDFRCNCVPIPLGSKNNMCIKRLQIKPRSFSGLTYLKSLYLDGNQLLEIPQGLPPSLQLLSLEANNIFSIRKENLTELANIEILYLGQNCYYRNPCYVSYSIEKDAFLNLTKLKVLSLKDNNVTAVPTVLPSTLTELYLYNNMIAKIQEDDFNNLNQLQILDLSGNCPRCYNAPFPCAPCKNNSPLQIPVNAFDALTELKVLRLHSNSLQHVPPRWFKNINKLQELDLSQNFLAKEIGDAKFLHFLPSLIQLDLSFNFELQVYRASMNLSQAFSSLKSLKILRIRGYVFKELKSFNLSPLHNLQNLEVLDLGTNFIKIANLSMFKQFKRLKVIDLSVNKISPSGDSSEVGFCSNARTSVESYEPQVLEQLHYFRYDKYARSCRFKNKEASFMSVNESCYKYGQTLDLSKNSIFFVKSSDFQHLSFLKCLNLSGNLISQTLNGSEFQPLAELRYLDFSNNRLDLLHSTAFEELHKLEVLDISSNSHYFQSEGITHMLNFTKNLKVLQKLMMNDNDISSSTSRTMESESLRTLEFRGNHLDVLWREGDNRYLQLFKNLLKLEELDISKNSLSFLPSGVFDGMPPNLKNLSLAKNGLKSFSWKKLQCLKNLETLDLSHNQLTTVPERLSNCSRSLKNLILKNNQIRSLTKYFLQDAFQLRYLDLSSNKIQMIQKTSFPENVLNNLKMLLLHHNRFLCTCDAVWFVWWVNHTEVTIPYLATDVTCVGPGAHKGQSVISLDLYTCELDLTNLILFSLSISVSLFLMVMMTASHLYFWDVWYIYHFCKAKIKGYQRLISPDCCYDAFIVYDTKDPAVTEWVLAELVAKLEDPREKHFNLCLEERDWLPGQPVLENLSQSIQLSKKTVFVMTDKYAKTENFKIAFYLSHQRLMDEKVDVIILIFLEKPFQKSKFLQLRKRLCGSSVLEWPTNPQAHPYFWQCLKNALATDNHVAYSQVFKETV
Summary of the method: (§1)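 HEK-Blue cells expressing human TLR7 or TLR8 with NF-kB/AP1-inducible SEAP reporter, plated 24 h, then compound-treated 18 h at 37° C, 5% CO2. EC50 normalized to 100% Ymax set by 50 μM reference standard.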

TLR8 = target: T2, TLR8 (Homo sapiens, UniProt Q9NR97); assay: In vitro human TLR8 binding reporter assay (HEK-Blue, NF-kB/AP1-inducible SEAP); type: cell-based; settings: activity range class, read-out: TLR8 Agonist EC50
T2 construct: human HEK-Blue cells co-expressing a TLR7 or TLR8 gene
T2 sequence (Q9NR97 27-1041): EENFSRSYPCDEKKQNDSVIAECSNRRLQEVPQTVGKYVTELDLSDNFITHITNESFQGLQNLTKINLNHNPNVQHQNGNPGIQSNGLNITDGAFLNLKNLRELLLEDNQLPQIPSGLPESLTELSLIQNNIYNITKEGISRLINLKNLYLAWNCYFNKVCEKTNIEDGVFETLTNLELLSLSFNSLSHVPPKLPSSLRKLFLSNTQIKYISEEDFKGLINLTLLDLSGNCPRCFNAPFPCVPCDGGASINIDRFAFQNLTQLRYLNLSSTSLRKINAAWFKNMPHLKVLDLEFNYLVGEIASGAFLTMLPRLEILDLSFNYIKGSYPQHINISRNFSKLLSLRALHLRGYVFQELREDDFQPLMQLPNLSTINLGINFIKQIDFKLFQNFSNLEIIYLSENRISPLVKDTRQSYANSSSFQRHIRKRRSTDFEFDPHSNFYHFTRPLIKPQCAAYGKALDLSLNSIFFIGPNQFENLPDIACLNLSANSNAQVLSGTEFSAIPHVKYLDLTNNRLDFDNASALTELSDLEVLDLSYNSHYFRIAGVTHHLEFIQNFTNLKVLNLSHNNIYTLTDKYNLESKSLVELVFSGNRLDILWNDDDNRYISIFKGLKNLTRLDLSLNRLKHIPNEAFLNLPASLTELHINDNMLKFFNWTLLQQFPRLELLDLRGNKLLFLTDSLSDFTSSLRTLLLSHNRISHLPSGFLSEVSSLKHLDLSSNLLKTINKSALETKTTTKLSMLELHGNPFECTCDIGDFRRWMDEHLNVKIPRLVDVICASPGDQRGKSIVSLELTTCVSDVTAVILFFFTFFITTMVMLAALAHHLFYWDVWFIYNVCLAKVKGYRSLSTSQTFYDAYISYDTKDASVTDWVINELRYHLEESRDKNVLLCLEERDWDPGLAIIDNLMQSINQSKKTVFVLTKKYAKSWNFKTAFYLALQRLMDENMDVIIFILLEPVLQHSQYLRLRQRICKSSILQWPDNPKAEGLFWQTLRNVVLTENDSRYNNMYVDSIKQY
Summary of the method: as §1

EC50 (THP-1 cells) [µM]	EC50 (TLR7) [µM]	EC50 (TLR8) [µM]	Compound
0.22	> 100	> 100	CCOCCn1cc2c(n1)c(N)nc1cc(-c3ccn[nH]3)ccc12 [Example 190]
7.19	> 100	> 100	NC(=O)Cn1cc2c(n1)c(N)nc1cc(-c3ccn[nH]3)ccc12 [Example 191]
0.09	> 100	> 100	Nc1nc2cc(-c3ccn[nH]3)ccc2c2cn(CC(F)F)nc12 [Example 192]
0.24	20 to 100	20 to 100	Nc1nc2cc(-c3ccn[nH]3)ccc2c2cn(CCF)nc12 [Example 193]
0.22	> 100	> 100	Nc1nc2cc(-c3cc[nH]n3)ccc2c2cn(CCNc3ccccn3)nc12 [Example 194, 7-(1H-pyrazol-3-yl)-2-(2-(pyridin-2-ylamino)ethyl)-2H-pyrazolo[3,4-c]quinolin-4-amine]
0.18	> 100	> 100	Nc1nc2cc(-c3cc[nH]n3)ccc2c2nn(CCNC(=O)c3ccc(F)cn3)cc12 [Example 196]
0.25	> 100	> 100	Nc1nc2cc(-c3cc[nH]n3)ccc2c2nn(CCNC(=O)c3cc(Cl)ccn3)cc12 [Example 197]
4.44	> 100	> 100	Nc1nc2cc(-c3cc[nH]n3)ccc2c2nn(CCNC(=O)C3CCCCO3)cc12 (stereo not drawn) [Example 199]
0.66	> 100	> 100	COc1ccc(C(=O)NCCn2cc3c(N)nc4cc(-c5cc[nH]n5)ccc4c3n2)nc1 [Example 202]
3.49	> 100	> 100	CC(C)(F)C(=O)NCCn1cc2c(N)nc3cc(-c4cc[nH]n4)ccc3c2n1 [Example 203]
2.6	> 100	> 100	Nc1nc2cc(-c3cc[nH]n3)ccc2c2nn(CCNC(=O)c3cccnc3)cc12 [Example 204]
2.04	> 100	> 100	Nc1nc2cc(-c3cc[nH]n3)ccc2c2nn(CCN3Cc4ccc(F)cc4C3=O)cc12 [Example 205, 2-(2-(4-amino-7-(1H-pyrazol-3-yl)-2H-pyrazolo[4,3-c]quinolin-2-yl)ethyl)-6-fluoroisoindolin-1-one]
0.14	> 100	> 100	COCCn1cc2c(N)nc3cc(-c4cc[nH]n4)ccc3c2n1 [Example 207, 2-(2-methoxyethyl)-7-(1H-pyrazol-3-yl)-2H-pyrazolo[4,3-c]quinolin-4-amine]
0.49	> 100	> 100	COCCn1ncc2c(N)nc3cc(-c4cc[nH]n4)ccc3c21 [Example 208, 1-(2-methoxyethyl)-7-(1H-pyrazol-3-yl)-1H-pyrazolo[4,3-c]quinolin-4-amine]
3.21	> 100	> 100	Nc1nc2cc(-c3cc[nH]n3)ccc2c2nn(CCCN3CCOCC3)cc12 [Example 213]
3.04	> 100	> 100	Nc1nc2cc(-c3cc[nH]n3)ccc2c2c1cnn2CCCO [Example 216]
0.3	> 100	> 100	COCCCCn1ncc2c(N)nc3cc(-c4cc[nH]n4)ccc3c21 [Example 219]
0.21	> 100	> 100	CCCn1ncc2c(N)nc3cc(-c4cc[nH]n4)ccc3c21 [Example 221]
0.27	> 100	> 100	CCOCCn1cc2c(N)nc3cc(-c4cc[nH]n4)ccc3c2n1 [Example 222]
0.45	> 100	> 100	CCOCCn1ncc2c(N)nc3cc(-c4cc[nH]n4)ccc3c21 [Example 223]

The next lines start with the compound.

Compound	EC50 (THP-1 cells) [µM]	EC50 (TLR7) [µM]	EC50 (TLR8) [µM]
Nc1nc2cc(-c3cc[nH]n3)c(Cl)cc2c2cn(CCNC(=O)c3ccc(F)cn3)nc12 [Example 195, N-(2-(4-amino-8-chloro-7-(1H-pyrazol-3-yl)-2H-pyrazolo[3,4-c]quinolin-2-yl)ethyl)-5-fluoropicolinamide]	2.15	> 100	20 to 100
Cc1nc(C(=O)NCCn2cc3c(N)nc4cc(-c5cc[nH]n5)ccc4c3n2)co1 [Example 198]	0.11	> 100	> 100
Nc1nc2cc(-c3cc[nH]n3)ccc2c2nn(CCNC(=O)c3ccccc3)cc12 [Example 200]	0.57	> 100	> 100
Nc1nc2cc(-c3cc[nH]n3)ccc2c2nn(CCNC(=O)c3cnccn3)cc12 [Example 201]	0.48	> 100	> 100
CS(=O)(=O)NCCn1cc2c(N)nc3cc(-c4cc[nH]n4)ccc3c2n1 [Example 206, N-(2-(4-amino-7-(1H-pyrazol-3-yl)-2H-pyrazolo[4,3-c]quinolin-2-yl)ethyl)methanesulfonamide]	0.26	> 100	> 100
Nc1nc2cc(-c3cc[nH]n3)ccc2c2nn(CCO)cc12 [Example 209, 2-(4-amino-7-(1H-pyrazol-3-yl)-2H-pyrazolo[4,3-c]quinolin-2-yl)ethan-1-ol]	0.19	> 100	> 100
CS(=O)(=O)CCCn1cc2c(N)nc3cc(-c4cc[nH]n4)ccc3c2n1 [Example 211]	0.63	> 100	> 100
CS(=O)(=O)CCCn1ncc2c(N)nc3cc(-c4cc[nH]n4)ccc3c21 [Example 212]	4.37	> 100	> 100
Nc1nc2cc(-c3cc[nH]n3)ccc2c2c1cnn2CCCN1CCOCC1 [Example 214]	4.55	> 100	> 100
Nc1nc2cc(-c3cc[nH]n3)ccc2c2nn(CCCO)cc12 [Example 215]	0.4	> 100	> 100
Nc1nc2cc(-c3cc[nH]n3)ccc2c2c1cnn2CCO [Example 217]	1.17	> 100	> 100
COCCCCn1cc2c(N)nc3cc(-c4cc[nH]n4)ccc3c2n1 [Example 218]	0.2	> 100	> 100
CCCn1cc2c(N)nc3cc(-c4cc[nH]n4)ccc3c2n1 [Example 220]	0.12	> 100	> 100
Nc1nc2cc(-c3cc[nH]n3)ccc2c2nn(CC(F)F)cc12 [Example 224]	0.14	> 100	> 100
